Source: US8815535B2, “Disk diffusion assay for oritavancin” (The Medicines Company, priority 2011, dated 2014)
Read-outs that look alike come from different tables or passages of the source.

Test system: MSSA ATCC 25923
Experiment: Disk diffusion assay (zone of inhibition)
Format: cell-based, Staphylococcus aureus
Conditions: for Effect of addition of 5% P80 on zone diameter (average increase): MSSA ATCC 25923, disks containing 30 μg; for zone of inhibition at 30 µg/disc: Staphylococcus aureus, 30 μg in disk, without prediffusion, average of 2 disks
Text: The study was designed to identify conditions that improve oritavancin diffusion in agar and consequently yield a zone diameter ≧15 mm for the CLSI quality control strain MSSA ATCC 25923. Excipients that increased the disk diffusion of oritavancin in agar relative to disks containing only oritavancin were identified and selected for further study. […] A prediffusion step at room temperature was introduced to maximize oritavancin diffusion prior to initiation of bacterial growth. In this step, the antimicrobial disks were placed on agar plates seeded with a bacterial isolate and incubated at room temperature for 3 hours. Plates were then incubated overnight at 37° C. Zone diameters around the disks in which bacterial growth was inhibited were measured with a ruler and reported in millimeters.
Ethanol-sterilized Whatman paper disks (6 mm diameter) were allowed to dry then impregnated with 20 microliters of oritavancin solution containing total amounts ranging from 90 to 360 micrograms. Disks were allowed to dry at room temperature for various times prior to use.
Bacterial suspensions were prepared and adjusted to an optical density of 0.1 at 600 nm. […] The plate was swabbed a second time, perpendicular to the orientation of the first swab. To assess the impact of prediffusion on diameter of inhibition zones, two disks were immediately placed on one half of the plate and the plate was incubated for 3 hours at room temperature. After 3 hours, two additional disks were placed on the other half of the plate then the plate was incubated overnight at 37° C. Zone diameters were measured with a ruler and reported in millimeters. […]
Oritavancin powder was dissolved in freshly-prepared solutions of the indicated excipients at concentrations of 0.625, 1.25, 2.5, 5, and 10 mg/ml (adjusted for potency based on lot 875561L00 purity of 83.1%) by vortexing for a minimum of 5 minutes. Oritavancin solutions in the various excipients, while not visually clear, were free from any apparent particulates as assessed visually. Sterile Oxoid blank disks were impregnated with 20 μl of these oritavancin solutions, resulting in oritavancin disk loads ranging from 12.5 to 200 μg. Unless indicated otherwise, disks were allowed to dry overnight at room temperature prior to use.
[…] Swabbing was continued at a right angle and then at an oblique angle to the first and second swabs. Disks were placed upon the seeded plates with sterile forceps. Plates were then incubated overnight at 37° C. and inhibition zone diameters were measured with a ruler and reported in millimeters.

[1] = read-out: Average zone diameter, S. aureus ATCC 25923, +5% P80
[2] = read-out: Average zone diameter, S. aureus ATCC 25923, Control (without P80)

Compound | Effect of addition of 5% P80 on zone diameter (average increase) | zone of inhibition at 30 µg/disc (S. aureus ATCC 25923, +5% P80, read-out: Average zone diameter) | zone of inhibition at 30 µg/disc (S. aureus ATCC 25923, Control (without P80), read-out: Average zone diameter) | zone of inhibition at 30 µg/disc [1] | zone of inhibition at 30 µg/disc [2]
CCCCCCCCCC(=O)N[C@@H](Cc1c[nH]c2ccccc12)C(=O)N[C@H](CC(N)=O)C(=O)N[C@@H](CC(=O)O)C(=O)N[C@@H]1C(=O)NCC(=O)N[C@@H](CCCN)C(=O)N[C@@H](CC(=O)O)C(=O)N[C@H](C)C(=O)N[C@@H](CC(=O)O)C(=O)NCC(=O)N[C@H](CO)C(=O)N[C@@H]([C@H](C)CC(=O)O)C(=O)N[C@@H](CC(=O)c2ccccc2N)C(=O)O[C@@H]1C [Daptomycin] | no effect | 18 mm | 18.5 mm | – | –
CCCCCCCCCCNCCN[C@@]1(C)C[C@H](O[C@H]2[C@H](Oc3c4cc5cc3Oc3ccc(cc3Cl)[C@@H](O)[C@@H](NC(=O)[C@@H](CC(C)C)NC)C(=O)N[C@@H](CC(N)=O)C(=O)N[C@H]5C(=O)N[C@H]3C(=O)N[C@H](C(=O)N[C@H](C(=O)O)c5cc(O)c(CNCP(=O)(O)O)c(O)c5-c5cc3ccc5O)[C@H](O)c3ccc(c(Cl)c3)O4)O[C@H](CO)[C@@H](O)[C@@H]2O)O[C@@H](C)[C@H]1O [Telavancin] | – | – | – | 18 mm | 16.5 mm
CN[C@H](CC(C)C)C(=O)N[C@H]1C(=O)N[C@@H](CC(N)=O)C(=O)N[C@H]2C(=O)N[C@H]3C(=O)N[C@H](C(=O)N[C@H](C(=O)O)c4cc(O)cc(O)c4-c4cc3ccc4O)[C@H](O)c3ccc(c(Cl)c3)Oc3cc2cc(c3O[C@@H]2O[C@H](CO)[C@@H](O)[C@H](O)[C@H]2O[C@H]2C[C@](C)(N)[C@H](O)[C@H](C)O2)Oc2ccc(cc2Cl)[C@H]1O [Vancomycin] | no effect | – | – | 17.5 mm | 17.5 mm
